Data taken from patent US5380715A, “Ap4 A as a hypotensive agent” (Fujirebio Inc., priority 1992, dated 1995).

Key:
rabbit erythrocytes = experiment: Inhibitory effect on rabbit erythrocyte crenation induced by A23187; assay type: cell-based; conditions: for Crenation: x ± SE; for inhibition of A23187-induced erythrocyte crenation: result in words
Description: Fresh blood was collected from Japanese white rabbits weighing 2-3 kg. Blood samples were anticoagulated with citric acid (1 ml 3.8% Citric acid solution+10 ml blood). These samples were centrifuged at room temperature for 15 min at 1100 rpm. After centrifugation of the defibrinated blood, the upper cell layers were discarded. The erythrocytes (pellet) were washed 4 times in a medium containing; 56.6 mM Tris-HCl, pH 7.6, 100 mM NaCl, 4.6 mM KCl,0.64 mM MgCl2. The erythrocytes were preincubated with saline solution or Ap4 A at 37° C for 10min and then A23187 1×10^-6 M and CaCl2 5×10^-7 M were added to the Mixture. After incubation at 37° C. for 20 min, the reaction mixture was centrifugated at 1000 rpm for 10 min. The precipitation was fixed by addition of 0.1M cacodylate buffer containing 0.22M sucrose. The number of transforming erythrocytes was counted using a microscope.

[1] = test system: rabbit mesenteric arteries; conditions: words; cited from earlier work

SMILES: Nc1ncnc2c1ncn2[C@@H]1O[C@H](COP(=O)(O)OP(=O)(O)OP(=O)(O)OP(=O)(O)OC[C@H]2O[C@@H](n3cnc4c(N)ncnc43)[C@H](O)[C@@H]2O)[C@@H](O)[C@H]1O [Ap4A, diadenosine 5',5'"-p^1,p^4 -tetraphosphate]
- Crenation (rabbit erythrocytes; 10^-3 M, P < 0.01 vs control): 19.2 ± 9.1%
- Crenation (rabbit erythrocytes; 10^-4 M, P < 0.05 vs control): 37.0 ± 6.4%
- Crenation (rabbit erythrocytes; 10^-5 M): 49.1 ± 3.9%
- inhibition at 1000 µM (rabbit erythrocytes; Oryctolagus cuniculus, Erythrocyte, 10^-3 M): 66.1%
- inhibition at 100 µM (rabbit erythrocytes; Oryctolagus cuniculus, Erythrocyte, 10^-4 M): 34.6%
- inhibition at 10 µM (rabbit erythrocytes; Oryctolagus cuniculus, Erythrocyte, 10^-5 M): 13.3%
- IC50 (rabbit erythrocytes; Oryctolagus cuniculus, Erythrocyte, A23187-induced crenation): 300 µM
- inhibition of A23187-induced erythrocyte crenation (rabbit erythrocytes): significant inhibitory effect
- inhibition of A23187-induced erythrocyte crenation (rabbit erythrocytes; listed as Ap4 A): A23187-induced rabbit erythrocyte crenation was inhibited
- vasodilating effect [1]: a vasodilating effect of rabbit mesenteric arteries
